# Experimental data published in patent US4659727A, “Ethene derivatives” (May & Baker Limited, priority 1984, dated 1987).
# What was measured:
# mouse macrophage cells = assay: reduction by 50% of inhibition of migration of incubated mouse macrophage cells (antagonism or reduction of lymphokine levels); format: in vivo; settings: po, twice: one hour before and four hours after antigen, each time at the dose shown, mice
# Procedure: For example, from tests in mice it was calculated that compounds of formula I, when twice administered orally, one hour before and four hours after the administration of antigen, each time at the doses shown in the following Table I, would reduce by 50% the inhibition of migration of incubated mouse macrophage cells measured in a manner similar to that described by Likhite et al, Cellular Immunology, Vol 5, 1972, page 377. This is a measure of antagonism or reduction of the levels of lymphokines and is indicative of utility in the treatment of arthritic patients.
# lipoxygenase = assay: inhibition of lipoxygenase in vitro; format: biochemical; settings: 0.0001M
# Excerpt: For example, in tests in vitro at concentrations of 0.0001M, a compound of formula I inhibited lipoxygenase by the percentage shown in the following Table III.
# [1] = tested on: delayed-type hypersensitivity (Type IV hypersensitivity reaction), foot pad swelling; assay: delayed-type hypersensitivity (DTH) test, foot pad swelling; format: in vivo; settings: mice
# Excerpt: Compounds of formula I were also submitted to the delayed-type hypersensitivity (DTH) test, which is an in-vivo model of cellular immunity (Type IV hypersensitivity reaction) which is suppressed by antirheumatic drugs. Previously sensitised mice receive antigen challenge (using methylated bovine serum albumen) by foot pad injection and the resulting foot pad swelling is compared in control animals and animals treated with compounds of formula I.
# [2] = dose 10 mg/kg animal body weight
# [3] = dose 50 mg/kg animal body weight
Compound,ED50 (mouse macrophage cells),also measured
"O=S(=O)(C(=CNc1ccccc1)S(=O)(=O)c1ccccc1)c1ccccc1 [Z, 1-phenylamino-2,2-bis(phenylsulphonyl)ethene]",2 mg/kg,
"O=S(=O)(C(=CNCc1ccccc1)S(=O)(=O)c1ccc(Cl)cc1)c1ccc(Cl)cc1 [V, 2-benzylamino-1,1-bis(4-chlorophenylsulphonyl)ethene]",< 10 mg/kg,
"O=[N+]([O-])c1ccc(N(C=CS(=O)(=O)c2ccccc2)c2ccc(Br)cn2)cc1 [Compound BE, 1-[N-(5-bromopyrid-2-yl)-N-(4-nitrophenyl)]amino-2-phenylsulphonylethene]",4.4 mg/kg,
"CCOC(=O)C(=CNc1ncccc1C)C(=O)OCC [Compound AM, 1,1-bis(ethoxycarbonyl)-2-(3-methylpyrid-2-ylamino)ethene]",,% inhibition of lipoxygenase (lipoxygenase): 62%
"O=S(=O)(C(=CNc1cnc2ccccc2c1)S(=O)(=O)c1ccccc1)c1ccccc1 [E, 1,1-bis(phenylsulphonyl)-2-(quinol-3-ylamino)ethene]",,"% inhibition [1, 2]: 38%; % inhibition [1, 3]: 15%"
"NC(=O)c1cnc(NC=C(S(=O)(=O)c2ccccc2)S(=O)(=O)c2ccccc2)cn1 [I, 1-(5-carbamoylpyrazin-2-ylamino)-2,2-bis(phenylsulphonyl)ethene]",,% inhibition ([1]; dose 40 mg/kg animal body weight): 30%
"O=S(=O)(C(=CNCc1ccccn1)S(=O)(=O)c1ccc(Cl)cc1)c1ccc(Cl)cc1 [W, 1,1-bis(4-chlorophenylsulphonyl)-2-(pyrid-2-ylmethylamino)ethene]",< 10 mg/kg,
"O=S(=O)(C(=CNc1nc2ccccc2s1)S(=O)(=O)c1ccccc1)c1ccccc1 [D, 1-(benzothiazol-2-ylamino)-2,2-bis(phenylsulphonyl)ethene]",,"% inhibition [1, 3]: 27%"
"O=S(=O)(C(=CNc1nccnn1)S(=O)(=O)c1ccccc1)c1ccccc1 [C, 1,1-bis(phenylsulphonyl)-2-(1,2,4-triazin-3-ylamino)ethene]",2 mg/kg,
"Cn1cc(C(N)=O)ccc1=NC=C(S(=O)(=O)c1ccccc1)S(=O)(=O)c1ccccc1 [AP, 2-[2,2-bis(phenylsulphonyl)ethen-1-ylimino]-5-carbamoyl-1-methylpyridine]",< 10 mg/kg,
"Cc1cc(NC=C(S(=O)(=O)c2ccccc2)S(=O)(=O)c2ccccc2)nc(C)n1 [H, 1-(2,6-dimethylpyrimidin-4-ylamino)-2,2-bis(phenylsulphonyl)ethene]",< 10 mg/kg,
"CS(=O)(=O)C(C#N)=CNc1ccc(Br)cn1 [N, 2-(5-bromopyrid-2-ylamino)-1-cyano-1-methylsulphonylethene]",28 mg/kg,
"CC(=O)C(=CNc1ccc(Br)cn1)S(=O)(=O)c1ccccc1 [O, 1-acetyl-2-(5-bromopyrid-2-ylamino)-1-phenylsulphonylethene]",14 mg/kg,
"Cc1cc(C)nc(NC=CC=O)c1 [AI, 1-formyl-2-(4,6-dimethylpyrid-2-ylamino)ethene]",5.2 mg/kg,
"O=S(=O)(C(=CNc1nccs1)S(=O)(=O)c1ccccc1)c1ccccc1 [Compound A, 1,1-bis(phenylsulphonyl)-2-(thiazol-2-ylamino)ethene]",10 mg/kg,
"O=S(=O)(C(=CNc1ccc2ccccc2n1)S(=O)(=O)c1ccccc1)c1ccccc1 [G, 1,1-bis(phenylsulphonyl)-2-(quinol-2-ylamino)ethene]",,"% inhibition [1, 2]: 30%; % inhibition [1, 3]: 24%"
